In article PMC4851402, “Validation of N-myristoyltransferase as Potential Chemotherapeutic Target in Mammal-Dwelling Stages of Trypanosoma cruzi” (PLoS Neglected Tropical Diseases, 2016):
“Also recorded” adds a separate entry of the source. Like-named read-outs stand apart in the source and are kept apart here.

How the values were obtained:
U2OS cells = experiment: Cytotoxicity (viability) assay on non-infected U2OS cells, high-content imaging; type: cell-based, human; conditions: for EC50: Homo sapiens, read-out: U2OS cells EC50; for Toxicity on U2OS cells: after 48 h of treatment
Procedure: (§1) DMSO control wells contained 30 μL 6% DMSO, whereas wells for the negative control contained 1% hydrogen peroxide in DMEM. U2OS cells were resuspended in DMEM, 10% HI-FBS, to give a cell density of 2 x 10^5 cells/mL, while ICA forms were resuspended in DMEM, 10% HI-FBS, to a final density of 1 x 10^7 per well. Epi forms were resuspended in LIT medium to a density of 1 x 10^6 parasites per well. Hundred and fifty microliters of the suspension containing either host cells or parasites were added per well. Following 47- and 23-h incubation at 37°C for mammalian cells and ICA, respectively, a mixture of propidium iodide (Invitrogen) and Hoechst dye (Invitrogen) diluted in culture media (1 μg/mL each) was added to the plates, which were then further incubated for 1 h at 37°C. […] In the case of Epi, after 68-h incubation at 28°C, 18 μL Alamar Blue (AbD Serotec, Raleigh, NC) were added per well. Following an additional 4-h incubation, the plate was read in a microplate fluorometer (Thermo Scientific) at excitation 560 nm, emission 590 nm. Three independent experiments were performed in triplicate wells.
(§2) EC50 were determined from three independent experiments.

[1] = tested on: Purified ICAs of T. cruzi; experiment: microbe, parasite or virus in culture; type: cell-based, Trypanosoma cruzi (Y strain); conditions: for EC50: read-out: Purified ICAs EC50
Procedure: Intracellular amastigote (ICA) forms were purified as described. Briefly, 5 x 10^6 LLC-MK2 cells were seeded in a 150-cm^2 tissue culture flask (NUNC, Thermo Scientific) and cells were grown for 3–4 days to reach confluency of ~2 x 10^7 cells per flask. The medium was then replaced with fresh complete medium and host cells were infected with 1 x 10^8 TCT (multiplicity of infection (MOI) ≈ 5). After 5 days, the infected monolayers were gently detached by scraping and resuspended in 5 mL phosphate-buffered saline (PBS). The suspension containing the infected cells was next transferred to an M-tube (Miltenyi Biotec Inc., San Diego, CA). This tube bears a special stator and rotor that allows for tissue homogenization. In addition, it has a pre-inserted mesh that retains larger particles, removing them from the homogenized sample. The tube was then placed in the gentleMACS Dissociator (Miltenyi Biotec) for the automated disruption of host cells. The homogenized sample containing the parasites was then passed through a column containing anion exchange preswollen microgranular diethylaminoethyl cellulose (DE52, Whatman, Sigma-Aldrich).
as §1, §2

[2] = tested on: T. cruzi intracellular amastigote proliferation; experiment: In vitro T. cruzi intracellular proliferation assay in infected U2OS cells, high-content imaging; type: cell-based, Trypanosoma cruzi (Y strain); conditions: read-out: T. cruzi proliferation assay EC50
Procedure: DMSO control wells contained 30 μL 6% DMSO. Human […] (U2OS cells) were diluted in DMEM, 10% heat inactivated-fetal bovine serum (HI-FBS) to give a cell density of 2 x 10^5 cells/mL. T. cruzi trypomastigotes were resuspended in DMEM, 10% HI-FBS to a final density of 1.2 x 10^7. Cells and parasites were mixed a ratio of 4 volumes of cells plus 1 volume of parasites. 150 μL of the mixture were dispensed per well. Plates were incubated for 48 h. After the incubation period, media was removed from the wells and 100 μL 4% paraformaldehyde (PFA) were added. After 15 min of incubation at room temperature, PFA was removed and cells and parasites were stained with Draq5 (BioStatus, Leicestershire, UK) at a concentration of 5 μM diluted in PBS. The plates were then read in a bioimager system as described below. Three independent experiments were performed in triplicate wells.
Filter sets appropriate for the excitation and emission spectra of Draq5 were utilized. Images from four fields (2 x 2 montage) were acquired per well with a 20x objective. To perform the host cell segmentation and counting of parasites, the BD AttoVision v1.6.2 Sub Object analysis was used. Draq5 creates a background, staining the host cell and parasite nucleus, but defining the cytoplasm as well, determining this way the amount of parasites within each mammalian cell. The host cell nucleus was excluded by size difference. Raw data was imported into the BD Image Data Explorer (BD Biosciences) to determine the percentage of infected cells containing at least 1, at least 3 or at least 5 intracellular parasites.
as §2

T. brucei = tested on: T. brucei; parameters: method as in PMID 20360736; conditions: T. brucei bloodstream forms; cited from earlier work
[3] = tested on: T. cruzi epimastigotes (Epi); experiment: Cytotoxicity assay on epimastigotes (Alamar Blue); type: cell-based, Trypanosoma cruzi (Y strain); conditions: after 72 h; for EC50: Trypanosoma cruzi, read-out: Epi forms EC50
Procedure: DDD compounds 1–8 and the reference drug BZ were prepared 6-fold-concentrated in 6% DMSO, to give a final concentration of 1x compound in 1% DMSO. […] DMSO control wells contained 30 μL 6% DMSO, whereas wells for the negative control contained 1% hydrogen peroxide in DMEM. U2OS cells were resuspended in DMEM, 10% HI-FBS, to give a cell density of 2 x 10^5 cells/mL, while ICA forms were resuspended in DMEM, 10% HI-FBS, to a final density of 1 x 10^7 per well. Epi forms were resuspended in LIT medium to a density of 1 x 10^6 parasites per well. Hundred and fifty microliters of the suspension containing either host cells or parasites were added per well. Following 47- and 23-h incubation at 37°C for mammalian cells and ICA, respectively, a mixture of propidium iodide (Invitrogen) and Hoechst dye (Invitrogen) diluted in culture media (1 μg/mL each) was added to the plates, which were then further incubated for 1 h at 37°C. Finally, plates were read in the BD Pathway 855 bioimager system. In the case of Epi, after 68-h incubation at 28°C, 18 μL Alamar Blue (AbD Serotec, Raleigh, NC) were added per well. Following an additional 4-h incubation, the plate was read in a microplate fluorometer (Thermo Scientific) at excitation 560 nm, emission 590 nm. Three independent experiments were performed in triplicate wells. […] EC50 were determined from three independent experiments.

TcNMT [4] = experiment: Western blotting of TcNMT expression in treated parasites; type: cell-based, Trypanosoma cruzi; conditions: 10 μM, 12 h
Procedure: Parasites (1 x 10^7 cells) were incubated with or without 10 μM of the inhibitor (compound 1, 5, or 8) in 1 mL 10% HI-FBS, DMEM at 37°C for ICA and TCT, and at 28°C for Epi for 12 h. Next, parasites were washed three times with PBS and lysed in 1% SDS, Tris-HCl, pH 8.0. Samples were run in 10% SDS-PAGE followed by western blot probed with anti-TcNMT at dilution 1:1000 in 5% milk-PBS overnight. This was followed by incubation with anti-rabbit IgG-HRP conjugated. The membrane was next stripped with boiling stripping buffer (3% SDS, 0.3% β-mercaptoethanol) for 10 min, followed by 4 washes with 0.1% PBS-T. It was then blot again with anti-BiP at dilution 1:500 in 5% milk-PBS overnight, at 4°C, followed by anti-rabbit IgG HRP-conjugated.

[5] = tested on: Epi, ICA and TCT forms of T. cruzi; experiment: [35S]-Methionine labeling (protein translation); type: cell-based, Trypanosoma cruzi; conditions: 10 μM, 12 h
Procedure: Parasites were incubated with or without 10 μM of the inhibitors as described above. After 10 h, cells were starved in methionine deficient media for 1 h. Next, 20 μCi.mL^-1 [^35S]-methionine (Perkin Elmer) were added to the samples for 1 h incubation, for a 12-h treatment with the inhibitors. Next, the parasites were washed three times with PBS and lysed in 1% SDS, Tris-HCl, pH 8.0. Samples were ran in 4–12% gels (Expedeon, San Diego, CA) and transferred to polyvinylidene fluoride (PVDF) membranes (Sigma-Aldrich). Membranes were dried and exposed to Hyperfilm ECL (Amersham, GE Healthcare Lifesciences, Piscataway, NJ). To determine total protein levels, membranes were stained with Ponceau S after exposure.

TcNMT [6] = experiment: Metabolic labeling with myristic acid, azide and in-gel western blotting (on-target); type: cell-based, Trypanosoma cruzi; conditions: 10 μM, 12 h, Epi, ICA and TCT
Procedure: Parasites were incubated with or without 10 μM of the inhibitor 1, 5, or 8 in 1 mL 2% delipidated BSA-DMEM at 37°C for ICA and TCT and at 28°C for Epi. After 6 h, 100 μM myristic acid, azide (from a 50-mM stock in DMSO) were added to the samples, and the same volume of DMSO was added to the negative control. Cells were incubated for another 6 h, for a 12-h treatment with the inhibitors. Next, the parasites were washed three times with PBS and lysed in 1% SDS, Tris-HCl, pH 8.0. “Click” reaction was performed between the myristic acid azide and Biotin Alkyne (Invitrogen) according to the manufacturer instructions using the Click-iT Protein Reaction Buffer Kit (Invitrogen). Duplicate aliquots of lysates were ran in 10% SDS-PAGE followed by fixing (5% acetic acid, 50% isopropanol) for 15 min. Gels were then analyzed by in-gel western blotting using IRDye streptavidin (LI-COR Biosciences, Lincoln, NE) 1:7500 in 5% BSA, 0.05% SDS, 0.2% Tween in PBS, for 1 h at room temperature. They were subsequently treated or not with 0.2 M NaOH in methanol for 1 h at room temperature. Gels were scanned in an ODYSSEY quantitative imagining system (LI-COR Biosciences). They were next stained with Coomassie blue and scanned again to determine total protein levels.

[7] = non-infected U2OS cells, 48 h at 37°C
[8] = Trypanosoma cruzi, 24 h, purified ICAs, 24 h at 37°C
[9] = Trypanosoma cruzi, U2OS, 48 h, infected U2OS cells, 48 h at 37°C

SMILES | EC50 (U2OS cells; [7]) [nM] | EC50 [1, 8] [nM] | EC50 [2, 9] [nM] | Toxicity on U2OS cells (U2OS cells) | TcNMT expression in Epi (TcNMT [4]) | Incorporation of [35S]-methionine into proteins [5] | Protein N-myristoylation bands (myristic acid azide labeling) (TcNMT [6]) | also measured
Cc1nn(C)c(Cl)c1NS(=O)(=O)c1c(Cl)cc(-c2ccnc(N3CCNCC3)c2)cc1Cl [Compound 2] | > 50000 | > 50000 | 1140 |  |  |  |  | Trypanocidal activity against purified ICA forms ([1]; purified ICA): no significant trypanocidal activity; also recorded: not trypanocidal; EC50 ([2]; infected U2OS cells, 48 h at 37°C): 1100 nM; Efficacy in mouse model of human African trypanosomiasis (T. brucei): curative
Cc1nn(C)c(C)c1NS(=O)(=O)c1c(Cl)cc(CCCN2CCN(C)CC2)cc1Cl [Compound 3] |  |  |  |  |  |  |  | EC50 (U2OS cells; U2OS, 48 h): > 50000 nM; EC50 ([1]; Trypanosoma cruzi, 24 h): > 50000 nM; EC50 ([2]; Trypanosoma cruzi, U2OS, 48 h): 10300 nM
Cc1c(NS(=O)(=O)c2ccc(CCCC3CCN(C)CC3)cc2)c(CC(C)C)nn1C [Compound 4] | > 50000 | > 50000 | 540 |  |  |  |  | 
Cc1nn(C)c(C)c1N(C(F)F)S(=O)(=O)c1c(Cl)cc(CCCCC2CCN(C)CC2)cc1Cl [Compound 8] | 11900 | 20 | 350 | toxicity only at 50 μM | overexpression of TcNMT | no effect | decreased intensity or complete loss of most of the bands | EC50 [3]: 2100 nM
Cc1c(NS(=O)(=O)c2c(Cl)cc(-c3ccnc(N4CCNCC4)c3)cc2Cl)c(CC(C)C)nn1C [Compound 1] | 12800 | 1830 | 180 | toxicity only at 50 μM | overexpression of TcNMT | no effect | decreased intensity or complete loss of most of the bands | Effect on Epi parasite viability [3]: did not have a significant effect; EC50 ([1]; purified ICAs, 24 h at 37°C): 1800 nM
Cc1nn(C)c(C)c1N(CC(F)(F)F)S(=O)(=O)c1c(Cl)cc(CCCC2CCN(C)CC2)cc1Cl [Compound 7] | 13900 | 11100 | 1010 |  |  |  |  | 
Cc1nn(C)c(C)c1N(C(F)F)S(=O)(=O)c1c(Cl)cc(CCCC2CCN(C)CC2)cc1Cl [Compound 5] | 11400 | 60 | 260 | toxicity only at 50 μM | overexpression of TcNMT | no effect | decreased intensity or complete loss of most of the bands | EC50 [3]: 9700 nM
Cc1c(NS(=O)(=O)c2ccc(-c3cccc(CN(C)C)c3)cc2)c(CC(C)C)nn1C [Compound 6] | > 50000 | > 50000 | 990 |  |  |  |  | 
